The values that follow come from PubChem BioAssay (NCI).

Values joined by “and” are separate entries in the source; they are usually repeats but may differ in a detail not shown here. Equal values may be shown once.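 Dose response: 5 concentrations. Exposure: 48 h. Format: 96-well plates. Endpoint: linear interpolation; highest concentration if not reached. GI50 marks 50% less growth. Definition used: TGI = concentration required for complete inhibition of growth.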 Where only a bound is given, the exact number is not on record here.

Assay in all cases: NCI-60 cell line screen, 48 h
The subject of test [1] is HCC-2998 colon.
For test [2], the system named is SF-295 CNS.
Test [3] deals with TK-10 renal.
In test [4] the test system is SNB-75 CNS.
Test [5] has as its system HCT-15 colon.
Test [6] concerns OVCAR-3 ovarian.
The test system of test [7] is M14 melanoma.
Test [8] relates to HT29 colon.
Test [9] deals with NCI-H522 lung.
In test [10] the test system is BT-549 breast.

`Cc1ccc(C(=O)C#Cc2c[nH]c(=O)[nH]c2=O)cc1`: the TGI in [1] was 25.3 µM; in test [2] it was above 100 µM; in test [3], 31.9 µM; in test [4] it was 34.4 µM; in test [5], 37.7 µM; in [6], 29.8 µM. Also, the TGI in test [7] was found to be 35 µM; in test [8], 49.5 µM.

For the compound `CCCCCCCCCCCCCCCCCC(=O)OCC(COC1OC(CS(=O)(=O)O)C(O)C(O)C1O)OC(=O)CCCCCCCCCCCCCCCCC` (configuration not stated), the TGI in test [1], in [2], in [3], in [4], in [5] and in [6] was above 100 µM throughout. Besides, the TGI in test [7], in [9] and in [8] was above 100 µM each time.

In the case of `CSc1nc(C)c(Br)c(=O)n1C1OC(COC(C)=O)C(OC(C)=O)C(OC(C)=O)C1OC(C)=O` (configuration not stated), the TGI in test [1] was above 100 µM; in test [2], 79.7 µM and 70.8 µM; in test [3], > 100 µM and 55.9 µM; in test [4], 51.8 µM and 65.1 µM; in test [5], above 100 µM; in test [6], above 100 µM. The TGI in test [7], in [9] and in test [8] was above 100 µM in each case. The GI50 in test [3] was 43.1 µM and 20.6 µM; in [4] it was 10.5 µM and 26.5 µM; in [9], > 100 µM and 30.9 µM.

Regarding `NCCCNCCSSC/C=C\CSSCCNCCCN`, the TGI in [1], in [2], in test [3], in [4], in test [5] and in [6] was above 100 µM throughout. The TGI is above 100 µM in [7]; 42.5 µM and 24.7 µM in test [9]; 31.4 µM and 27.5 µM in test [8]. In test [2], the GI50 is 81.3 µM and 39.9 µM.

In the case of `COC1OC(COS(=O)(=O)c2ccc(C)cc2)C(O)C(OS(=O)(=O)c2ccc(C)cc2)C1OS(=O)(=O)c1ccc(C)cc1` (configuration not stated), the TGI in test [1], in [2], in test [4], in test [5], in [6] and in test [7] was above 100 µM each time. Moreover, the TGI in test [9] and in [8] was above 100 µM each time.

Turning to `NC(=O)Nc1c([N+](=O)[O-])cc(C(F)(F)F)cc1[N+](=O)[O-]`, the TGI was above 100 µM in [2]; above 100 µM in test [3]; above 100 µM in test [5]; 82.5 µM in [6]; above 100 µM in test [7]; above 100 µM in test [9]. In addition, in [8], the TGI is above 100 µM.

As for `CC1=NC(C(C)C)C(=O)O1` (configuration not stated), the TGI in test [1], in test [2], in test [3], in test [4], in test [5] and in [6] was above 100 µM throughout. Moreover, the TGI in test [7], in test [9] and in test [8] was above 100 µM throughout.

On to `CCOC(=O)c1c(Cl)c2c(n1Cc1cccc(OC)c1)-c1oncc1CC2`, for which the GI50 in test [1] was 3.01 µM; in test [2] it was 0.658 µM; in test [3], 6.59 µM; in [4], 1.61 µM; in test [5] it was 0.836 µM; in test [6] it was 0.383 µM. Besides, the GI50 is 2.07 µM in test [7], 0.351 µM in test [9] and 0.799 µM in test [8]. Moreover, the TGI in test [1] was 19.6 µM; in test [2], 15.9 µM; in test [3], above 100 µM; in test [4], 5.35 µM; in test [5], above 100 µM; in test [6], 2.92 µM. In addition, the values for the TGI in test [7], in test [9] and in [8] were above 100 µM, 6.73 µM and 15.1 µM, respectively.

With `O=C1OC(c2ccccc2)=N/C1=C\c1cc(Cl)ccc1Cl`, the TGI in test [1] was above 100 µM; in [2], above 100 µM; in test [4], 36.3 µM; in test [5], 82.9 µM; in test [7], above 100 µM; in test [9], above 100 µM. In addition, the TGI in test [8] was above 100 µM.

As for `CCCc1nc(NC#N)nc(C(=O)NC23CC4CC(CC(C4)C2)C3)c1C`, the TGI in test [1], in [2], in [3], in test [4], in test [5] and in [6] was above 100 µM in each case. In addition, the TGI in [7], in [9] and in test [8] was above 100 µM throughout.

For the compound `CCOC(=O)N[C@@H]1C2CC(=O)C(O2)[C@@H]1OC` (some centres not stated), the TGI in test [1], in [2], in [3], in [4], in test [5] and in [6] was above 100 µM throughout. In addition, the TGI in test [7], in test [9] and in test [8] was above 100 µM throughout.

With `COc1ccc(C(=O)C(C(=O)C(=O)NC2C3CC4CC(C3)CC2C4)c2ccc(OC)cc2)cc1` (configuration not stated), the TGI in test [1], in [2], in test [3], in test [4], in test [5] and in test [6] was above 100 µM each time. The TGI in test [7], in test [9] and in test [8] was above 100 µM throughout.

With `COC(=O)C1=C(c2ccc3c(c2)OCO3)OC(c2ccc3c(c2)OCO3)C1` (configuration not stated), the TGI in test [1], in test [2], in test [3], in [4], in test [5] and in test [6] was above 100 µM throughout. Besides, the TGI in test [7] and in [8] was above 100 µM throughout.

`COc1ccc(-c2nc(N3CCOCC3)c3sc(CN(C)c4ncc(C(=O)NO)cn4)cc3n2)cn1`: the GI50 was 0.014 µM in [10]; below 0.01 µM in [2]; below 0.01 µM in test [4]; below 0.01 µM in test [6]; below 0.01 µM in test [8]. Besides, the TGI in test [10] stood at 0.15 µM; in [2], 0.042 µM; in test [4] it was 0.152 µM; in test [6] it was 0.0282 µM; in [8], 0.0331 µM.

Take `CN(C)C1=NC2=S(SC(Nc3ccccc3)=N2)S1` (configuration not stated): the TGI in test [1] was above 100 µM; in test [2] it was 88.9 µM; in test [3], 85.5 µM; in test [4], 60.6 µM; in test [5] it was above 100 µM; in test [7], above 100 µM. Besides, the TGI in test [9] was 60.2 µM; in test [8], above 100 µM.

With `CCOC(=O)NC(=O)c1cn(CCCOC(=O)NCCCCCCNC(=O)OCCCn2cc(C(=O)NC(=O)OCC)c(=O)[nH]c2=O)c(=O)[nH]c1=O`, the TGI is above 100 µM in test [1]; 49.4 µM in [2]; 68.5 µM in [3]; 45.2 µM in test [4]; 65.1 µM in test [5]; 42.4 µM in test [6]. For the same compound, the TGI is 35.4 µM in test [7] and above 100 µM in [8].

With `Oc1ccc(-c2cn3cc(Cl)sc3n2)cc1`, the GI50 in test [10] is 32.1 µM; in test [2] it was 47.3 µM; in test [3], 40.4 µM; in test [5], above 100 µM; in [6] it was 22.5 µM; in test [7] it was 20.1 µM. Besides, the GI50 in test [9] was 32.6 µM; in test [8] it was 24.2 µM. The TGI in [10] was above 100 µM; in [2], above 100 µM; in test [3] it was 84.9 µM; in test [5], above 100 µM; in test [6], 64.1 µM; in test [7], 56.8 µM. Also, the TGI in test [9] is above 100 µM; in [8] it was 78.8 µM.

Turning to `CCOC(=O)C(=O)Nc1c(C)cccc1C(C)C`, the TGI in [2], in [3], in test [4], in test [5], in test [6] and in [7] was above 100 µM throughout. Moreover, the TGI in [9] and in test [8] was above 100 µM throughout.

For the compound `COc1ccc(C(=O)CC(=O)C(=O)Nc2ccc(C)c(C)c2)cc1`, the TGI is above 100 µM in [1]; above 100 µM in test [2]; above 100 µM in test [3]; 94.6 µM in test [4]; above 57.1 µM in [5]; above 100 µM in [6]. Further, the TGI in [7], in test [9] and in [8] was above 100 µM throughout.

As to `COC1=C2C[C@@H](C)C[C@@H](OC)[C@@H](O)[C@H](C)/C=C(\C)[C@@H](OC(N)=O)[C@H](OC)/C=C\C=C(/C)C(=O)NC(=CC1=O)C2=O`, in test [4], the GI50 is 7.93 µM and 4.68 µM and 1.12 µM; the TGI was 18.6 µM and 19.2 µM and 3.97 µM.

As to `COC(=O)CS(=O)c1ccccc1` (configuration not stated), the TGI in test [1], in [2], in test [3], in test [5], in test [6] and in [7] was above 100 µM in each case. Besides, the results for the TGI in test [9] and in test [8] were 30.1 µM and above 100 µM, respectively.

Take `CCC[CH2][Sn]1([CH2]CCC)[O]CC(CN2CCOCC2)[O]1` (configuration not stated): the GI50 in [1] is 8.82 µM; in test [2], 2.46 µM; in test [3], 4.02 µM; in test [4], 2.16 µM; in test [5] it was 6.4 µM; in test [6], 2.13 µM. The figures for the GI50 in test [7], in [9] and in test [8] were 2.86 µM, 1.12 µM and 9.65 µM, respectively. The TGI came to 21.6 µM in [1]; 10.9 µM in test [2]; 12.1 µM in test [3]; 7.05 µM in test [4]; 18.6 µM in test [5]; 8.23 µM in test [6]. The TGI in [7] is 10.3 µM; in test [9], 2.55 µM; in [8], 23.6 µM.

Turning to `O=C(O)c1cccc2cccc(C(=O)O)c12.[Hg]`, the GI50 in test [1] is 12 µM; in test [2] it was 17.8 µM; in [3] it was 20.3 µM; in test [4], 18.9 µM; in [5], 14.4 µM; in [6], 15.3 µM. Also, the GI50 in [7] is 14 µM; in test [9], 0.687 µM; in [8] it was 13.8 µM. The TGI in test [1] turned out to be 25.3 µM; in test [2], 32.2 µM; in [3], 34.6 µM; in [4] it was 36.9 µM; in [5], 29.8 µM; in test [6] it was 30 µM. In addition, the TGI in test [7] turned out to be 27 µM; in [9] it was 2.42 µM; in test [8], 27.2 µM.

As for `COc1cc(Nc2nc3cc(C(F)(F)F)ccc3nc2-c2ccccc2)cc(OC)c1OC`, the TGI in test [1] was above 100 µM; in test [2] it was above 100 µM; in test [3], 77 µM; in test [4] it was above 100 µM; in test [5], above 100 µM; in [6], above 100 µM. The TGI in test [7] is above 100 µM; in test [9], 83.4 µM; in test [8] it was above 100 µM.

On to `NC(=O)CCC(NC(=O)Cc1ccccc1)C(=O)O` (configuration not stated) (tested in a mixture with another compound), for which the TGI in test [1] is above 8130 µM; in [2], above 8130 µM; in [3] it was above 8130 µM; in test [4] it was 1680 µM and > 8130 µM; in [5], above 2470 µM; in test [6], above 8130 µM. Moreover, the TGI in test [7], in [9] and in test [8] was above 8130 µM throughout.

In the case of `COc1ccc(NC(=O)CC(=O)N2N=C(N(CCC#N)c3cccc(C)c3)CC2c2ccccc2)cc1` (configuration not stated), the TGI in [1], in test [2], in test [4], in test [5], in test [6] and in test [7] was above 100 µM in each case. The TGI in test [9] and in [8] was above 100 µM each time.

For the compound `COc1ccc(-c2cc(-c3cc(C)ccc3O)[nH]c(=O)n2)cc1`, the TGI in test [1] was above 100 µM; in [2], above 100 µM; in test [3], above 100 µM; in [4], 66.8 µM; in test [6] it was above 100 µM; in test [7], above 100 µM. For the same compound, the TGI in [9] is 94 µM; in test [8], above 100 µM.
